Measurements from patent US20040185108A1, “Method of preparing gas-filled polymer matrix microparticles useful for delivering drug” (priority 2003, published 2004).

Experiment: Release of oxybutynin using ultrasound from oxybutynin-containing polymer matrix microparticles (reverse phase HPLC)
Format: physicochemical
Description: Four vials containing product manufactured in accordance with Example 5 were each reconstituted with 10 mL of 20 mM KPO4 at pH 3.5 (wash solution). The oxybutynin containing microparticles from two of the vials were retrieved by centrifugation at 1500 rpm for 15 minutes. The microparticles were resuspended in 10 mL of wash solution and vortexed. The washing procedure was repeated two more times. The final washed matrix microparticles were resuspended in a total volume of 10 mL of wash solution. The remaining two vials were not washed. One vial from each set was designated the control sample and the other vial was the experimental sample.
The controls remained undisturbed for 80 minutes to allow the matrix microparticles to float. The subnatant was removed and centrifuged at 14,000 rpm for 2 minutes. The experimental samples were each sonicated for 1 minute on level 5 using a Virtis Virsonic hand-held sonicator. […] The suspensions were centrifuged at 14,000 rpm for 2 minutes. All four of the resulting supernatants were retrieved and analyzed by reverse phase HPLC. […] The amount of oxybutynin in each sample was calculated from the area using the standard curve.

SMILES: CCN(CC)CC#CCOC(=O)C(O)(c1ccccc1)C1CCCCC1 (centres unmarked) [oxybutynin]
- burst release of oxybutynin, of the recovered amount (microparticles of Example 5): 34%
- oxybutynin released due to sonication, of the recovered amount (microparticles of Example 5): 66%
- amount of oxybutynin in supernatant, unwashed control sample (microparticles of Example 5, unwashed, not sonicated, undisturbed 80 minutes): 0.65 mg oxybutynin/vial
- amount of oxybutynin in supernatant, unwashed experimental sample (microparticles of Example 5, unwashed, sonicated 1 minute level 5): 1.93 mg/vial
- leakage of drug after reconstitution (microparticles of Example 5, washed control, burst release removed): little to no leakage
- amount of oxybutynin in supernatant, washed control sample (microparticles of Example 5, washed, not sonicated, undisturbed 80 minutes, 20 mM KPO4 pH 3.5): 0.03 mg oxybutynin/vial
- amount of oxybutynin in supernatant, washed experimental sample (microparticles of Example 5, washed, sonicated 1 minute level 5, 20 mM KPO4 pH 3.5): 1.05 mg/vial
- total oxybutynin recovered after sonication compared to theoretical loading (microparticles of Example 5, theoretical loading 2.4 mg/vial): 80%
